Laboratory results from PubChem BioAssay (NCI).
Several values for one entry are separate records, joined by “and”; a condition that tells them apart may be missing. Equal values may be shown once.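 48-hour exposure; five concentrations; linearly interpolated endpoints. GI50 is the concentration that inhibits growth by half. Definition used: TGI = concentration required for complete inhibition of growth.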

What was measured:
Experiment in all cases: NCI tumour cell line growth inhibition, 48 h
OVCAR-4 ovarian = system: OVCAR-4 ovarian
HOP-62 NSCLC = system: HOP-62 NSCLC
OVCAR-8 ovarian = system: OVCAR-8 ovarian
NCI-H23 lung = system: NCI-H23 lung
RXF 393 renal = system: RXF 393 renal
CCRF-CEM leukemia = system: CCRF-CEM leukemia
OVCAR-5 ovarian = system: OVCAR-5 ovarian
HOP-92 NSCLC = system: HOP-92 NSCLC
SK-OV-3 ovarian = system: SK-OV-3 ovarian
NCI-H460 lung = system: NCI-H460 lung
SF-295 CNS = system: SF-295 CNS
HCC-2998 colon = system: HCC-2998 colon

| SMILES | TGI (OVCAR-4 ovarian) | TGI (HOP-62 NSCLC) | TGI (OVCAR-8 ovarian) | TGI (NCI-H23 lung) | TGI (RXF 393 renal) [µM] | TGI (CCRF-CEM leukemia) | TGI (OVCAR-5 ovarian) | TGI (HOP-92 NSCLC) | TGI (SK-OV-3 ovarian) | TGI (NCI-H460 lung) | TGI (SF-295 CNS) | TGI (HCC-2998 colon) [µM] | GI50 (HOP-62 NSCLC) | GI50 (OVCAR-8 ovarian) | GI50 (NCI-H23 lung) | GI50 (OVCAR-5 ovarian) | GI50 (SK-OV-3 ovarian) |
| --- | --- | --- | --- | --- | --- | --- | --- | --- | --- | --- | --- | --- | --- | --- | --- | --- | --- |
| c1ccc(-c2sc(-c3ccccc3)c3c2C2CCC3C2)cc1 | > 100 µM | > 100 µM | > 100 µM | > 100 µM | 84.5 | > 100 µM | > 100 µM | 47.9 µM | > 100 µM | 88.2 µM | > 100 µM | – | – | – | – | – | – |
| Cc1ccc(N(C)S(=O)(=O)c2ccccc2)cc1 | > 100 µM | > 100 µM | > 100 µM | > 100 µM | > 100 | > 100 µM | > 100 µM | – | > 100 µM | > 100 µM | > 100 µM | > 100 | – | – | – | – | – |
| Cc1ccc(O)c(-c2cc(-c3ccccc3)nc(/N=C\c3ccccc3)n2)c1 | > 100 µM | 58.8 µM | > 100 µM | 81.5 µM | – | > 100 µM | > 100 µM | > 100 µM | – | > 100 µM | > 100 µM | – | – | – | – | – | – |
| CC12OC3(C(O)C1O)C(C(=O)O[C@H]3CO[Si](C)(C)C(C)(C)C)C2S(=O)(=O)c1ccccc1 (some centres not stated) | 95 µM | > 100 µM | > 100 µM | – | – | – | > 100 µM | > 100 µM | > 100 µM | > 100 µM | > 100 µM | – | – | – | – | – | – |
| COc1cc(CC(C)N[C@@H](C)c2ccccc2)cc(OC)c1 (some centres not stated) | 22.4 µM and > 100 µM | 24.2 µM and > 100 µM | 25.7 µM and > 100 µM | 27.3 µM and > 100 µM | > 100 | 24 µM and > 100 µM | 26 µM and > 100 µM | 10.8 µM and > 100 µM | 25.5 µM and > 100 µM | 12.1 µM and > 100 µM | 21.5 µM and > 100 µM | – | 11.2 µM and > 100 µM | 11.8 µM and > 100 µM | 11.6 µM and > 100 µM | 12.9 µM and > 100 µM | 12.9 µM and > 100 µM |
| O=[N+]([O-])c1ccc(OP(=O)(O)OCC2OC(CP(=O)(O)O)C(O)C2O)cc1 (configuration not stated) | > 100 µM | > 100 µM | > 100 µM | > 100 µM | > 100 | > 100 µM | > 100 µM | > 100 µM | – | > 100 µM | > 100 µM | > 100 | – | – | – | – | – |
| CCOC(=O)C1=COC(C)(C)CC1=O | > 100 µM | > 100 µM | > 100 µM | > 100 µM | > 100 | – | > 100 µM | – | > 100 µM | > 100 µM | > 100 µM | – | – | – | – | – | – |
| CSC1=N/C(=C\c2ccccc2)C(=O)N1CN1CCOCC1 | 90.8 µM | > 100 µM | > 100 µM | > 100 µM | – | > 100 µM | > 100 µM | > 100 µM | > 100 µM | – | > 100 µM | – | – | – | – | – | – |
| Nc1nc(Cl)cc(NCC2(CO)CC(c3ccccc3)C2)n1 (configuration not stated) | > 100 µM | > 100 µM | > 100 µM | > 100 µM | > 100 | > 100 µM | > 100 µM | > 100 µM | > 100 µM | > 100 µM | > 100 µM | – | – | – | – | – | – |
| O=C1CCCC(=O)N1n1c(Cc2ccc(Cl)cc2)n[nH]c1=O | > 100 µM | > 100 µM | > 100 µM | > 100 µM | > 100 | > 100 µM | > 100 µM | – | > 100 µM | > 100 µM | > 100 µM | > 100 | – | – | – | – | – |
| Cc1ccc(S(=O)(=O)Nn2c(C)cc3ccc(S(=O)(=O)Nc4ccccc4[N+](=O)[O-])cc3c2=O)cc1 | > 100 µM | > 100 µM | > 100 µM | > 100 µM | – | > 100 µM | > 100 µM | > 100 µM | > 100 µM | > 100 µM | > 100 µM | > 100 | – | – | – | – | – |
| O=C(Nc1sccc1S(=O)(=O)c1ccc(Cl)cc1)c1ccc(Cl)cc1Cl | > 100 µM | > 100 µM | > 100 µM | > 100 µM | > 100 | > 100 µM | > 100 µM | > 100 µM | > 100 µM | > 100 µM | > 100 µM | – | – | – | – | – | – |
| CCCC1=NC(C(F)(F)F)(C(F)(F)F)N=C(N2CCOCC2)O1 | > 100 µM | > 100 µM | > 100 µM | > 100 µM | > 100 | > 100 µM | > 100 µM | > 100 µM | > 100 µM | – | > 100 µM | > 100 | – | – | – | – | – |
| O=C1C=Cc2c1csc2Br | > 100 µM | > 100 µM | > 100 µM | > 100 µM | > 100 | 45.8 µM | > 100 µM | – | > 100 µM | > 100 µM | > 100 µM | – | – | – | – | – | – |
| N=c1oc2ccc([N+](=O)[O-])cc2cc1C(=O)Nc1ccccn1 | > 100 µM | > 100 µM | > 100 µM | > 100 µM | > 100 | > 100 µM | > 100 µM | > 100 µM | > 100 µM | > 100 µM | – | > 100 | – | – | – | – | – |
| N#Cc1c(N)nc2c(N=Nc3ccccc3)c(N)nn2c1Nc1ccccc1 | 46.4 µM | 39.1 µM | 14.2 µM | 21.6 µM | 29.2 | > 100 µM | 57.7 µM | 31.6 µM | – | 44.3 µM | 59.9 µM | – | – | – | – | – | – |
| COC(=O)CCN1CCN(CCO)CC1C (configuration not stated) | > 10 µM | > 10 µM | > 10 µM | > 10 µM | > 10 | > 10 µM | – | – | > 10 µM | > 10 µM | > 10 µM | > 10 | – | – | – | – | – |
| COc1ccc(C(=O)/C=C/c2ccc(OCC#N)cc2)cc1OC | > 100 µM | 36.4 µM | > 100 µM | 54.5 µM | 33.8 | 31.3 µM | – | 44.3 µM | > 100 µM | > 100 µM | – | 33.3 | – | – | – | – | – |
| CCn1c(SCC(=O)NNC(=S)Nc2ccc(Cl)cc2)nc2ccccc2c1=O | > 100 µM | > 100 µM | > 100 µM | > 100 µM | > 100 | > 100 µM | > 100 µM | – | > 100 µM | > 100 µM | > 100 µM | > 100 | – | – | – | – | – |
| O=C1NC(=O)/C(=C/c2ccc(S(=O)(=O)N/N=C/c3ccccc3)cc2)N1 | > 100 µM | > 100 µM | > 100 µM | > 100 µM | > 100 | > 100 µM | > 100 µM | > 100 µM | > 100 µM | – | > 100 µM | > 100 | – | – | – | – | – |
